Measurements taken from patent publication US20220168392A1 (priority 2019, published 2022).
Square brackets hold non-standard residues; d marks the D form. * marks the point of attachment. 2Nal = N[C@@H](Cc1ccc2ccccc2c1)C(=O)O; Propionyl = CCC(=O)*; Sar = CNCC(=O)O

Legend:
[1] = tested on: CD2F1 mice exposed to TBI (7 Gy); experiment: Sternal bone marrow histopathology (cellularity, megakaryocytes) after 7 Gy TBI; type: in vivo, mouse; conditions: day 7 post-TBI 7 Gy; 24 h pre-TBI administration
Description: Sternal histopathology: Following blood collection, animals were euthanized, and the sterna were collected on 0 (2 h post-TBI), 1, 3, 7, 15 and 30 days post-TBI. The sterna were fixed in a 20:1 volume of fixative (10^0/% buffered formalin) to tissue for at least 24 h and up to 7 days. Fixed sterna were decalcified for 3 h in 12-18% sodium EDTA (pH 7.4-7.5), and specimens were dehydrated using graded ethanol concentrations and embedded in paraffin. Longitudinal 5 μm sections were stained with regular hematoxylin and eosin (H&E) stain. A board-certified veterinary pathologist conducted blinded histopathological evaluation of these samples. The bone marrow was evaluated in situ within sternebrae and graded for total cellularity and megakaryocyte numbers averaged per 10 high power fields at 40× magnification using a BX41 Olympus microscope (Olympus Corporation, Minneapolis, Minn.). […]
Bone marrow cellularity and architecture of CD2F1 mice treated 24 h pre-TBI with vehicle or RWJ-800088 were evaluated by the AFRRI pathologist (FIG. 8). Bone marrow cellularity was determined by evaluating the amount of adipose (fat) tissue versus hematopoietic cells (minus, mature red blood cells) on one (10×) high power field (HPF). […]
Samples were collected on different days post-TBI up to day 30. […] Megakaryocytes were evaluated by averaging the number of cells per 10 (40×) high power fields (HPFs). […]

[2] = tested on: subjects with cancer receiving platinum-based chemotherapy; experiment: Study NAP1002: cancer patients receiving platinum-based chemotherapy; type: in vivo, human
Description: In the second randomized, double-blind Phase 1 study (NAP1002), 46 subjects with cancer receiving platinum-based chemotherapy were enrolled into 3 cohorts: 12 subjects received 1.5 μg/kg RWJ-800088, 12 subjects received 2.25 μg/kg, 10 subjects received 3 μg/kg, and 12 subjects received placebo within 2 hours before administration of platinum-based chemotherapy on Day 1 of the first of 2 chemotherapy cycles. There was a 21-day interval between each chemotherapy cycle.

methoxypolyethyleneglycol20000-propionyl-L-Isoleucyl-L-Glutamyl-Glycyl-L-Prolyl-L-Threonyl-L-Leucyl-L-Arginyl-L-Glutaminyl-L-2-Naphthylalanyl-L-Leucyl-L-Alanyl-L-Alanyl-L-Arginyl-Sarcosyl-Ne-(methoxypolyethyleneglycol20000-propionyl-L-Isoleucyl-L-Glutamyl-Glycyl-L-Prolyl-L-Threonyl-L-Leucyl-L-Arginyl-L-Glutaminyl-L-2-Naphthylalanyl-L-Leucyl-L-Alanyl-L-Alanyl-L-Arginyl-Sarcosyl-)-Lysinamide ({mPEG 20 kDa-Propionyl}-IEGPTLRQ[2Nal]LAAR[Sar]K-NH2; also: dimer: second identical mPEG-propionyl chain on Lys Nε of C-terminal lysinamide) [RWJ-800088]
megakaryocytes counts in sternal bone marrow [1]: significant recovery
nadir and peak mean platelet counts vs placebo ([2]; 1.5 μg/kg): similar
day up to which mean platelet counts continued to decline ([2]; 1.5 μg/kg, each cycle): 15 days
platelet nadir and peak platelet counts, fold higher relative to placebo ([2]; 3 μg/kg): approximately 2 fold
day of peak mean platelet counts ([2]; 3.0 μg/kg, both cycles): 15 days
serious adverse event of thrombocythemia (number) ([2]; 1.5, 2.25, and 3 μg/kg): 1
tolerability ([2]; 1.5, 2.25, and 3 μg/kg with platinum-based chemotherapy): well-tolerated
day on which mean platelet counts were lowest ([2]; 2.25 and 3.0 μg/kg, each cycle): 10 days
nadir and peak platelet counts, fold higher than placebo ([2]; 2.25 or 3.0 μg/kg): approximately 2 fold
Maximum Platelet Counts, GMR (Active/Placebo) ([2]; Across cycles, 1.5 μg/kg): 1.0
Maximum Platelet Counts, Geometric Mean ([2]; Across cycles, 1.5 μg/kg): 374760 µL⁻¹
Minimum Platelet Counts, GMR (Active/Placebo) ([2]; Across cycles, 1.5 μg/kg): 0.6
Minimum Platelet Counts, Geometric Mean ([2]; Across cycles, 1.5 μg/kg): 34570 µL⁻¹
Maximum Platelet Counts, GMR (Active/Placebo) ([2]; Across cycles, 2.25 μg/kg): 1.6
Maximum Platelet Counts, Geometric Mean ([2]; Across cycles, 2.25 μg/kg): 574270 µL⁻¹
Minimum Platelet Counts, GMR (Active/Placebo) ([2]; Across cycles, 2.25 μg/kg): 2.7
Minimum Platelet Counts, Geometric Mean ([2]; Across cycles, 2.25 μg/kg): 165790 µL⁻¹
Maximum Platelet Counts, GMR (Active/Placebo) ([2]; Across cycles, 3.0 μg/kg): 1.8
Maximum Platelet Counts, Geometric Mean ([2]; Across cycles, 3.0 μg/kg): 662940 µL⁻¹
Minimum Platelet Counts, GMR (Active/Placebo) ([2]; Across cycles, 3.0 μg/kg): 2.2
Minimum Platelet Counts, Geometric Mean ([2]; Across cycles, 3.0 μg/kg): 134260 µL⁻¹
Maximum Platelet Counts, GMR (Active/Placebo) ([2]; Cycle 1, 1.5 μg/kg): 1.1
Maximum Platelet Counts, Geometric Mean ([2]; Cycle 1, 1.5 μg/kg): 329180 µL⁻¹
Minimum Platelet Counts, GMR (Active/Placebo) ([2]; Cycle 1, 1.5 μg/kg): 0.5
Minimum Platelet Counts, Geometric Mean ([2]; Cycle 1, 1.5 μg/kg): 46800 µL⁻¹
Maximum Platelet Counts, GMR (Active/Placebo) ([2]; Cycle 1, 2.25 μg/kg): 1.9
Maximum Platelet Counts, Geometric Mean ([2]; Cycle 1, 2.25 μg/kg): 564360 µL⁻¹
Minimum Platelet Counts, GMR (Active/Placebo) ([2]; Cycle 1, 2.25 μg/kg): 2.3
Minimum Platelet Counts, Geometric Mean ([2]; Cycle 1, 2.25 μg/kg): 217590 µL⁻¹
Maximum Platelet Counts, GMR (Active/Placebo) ([2]; Cycle 1, 3.0 μg/kg): 2.1
Maximum Platelet Counts, Geometric Mean ([2]; Cycle 1, 3.0 μg/kg): 642690 µL⁻¹
Minimum Platelet Counts, GMR (Active/Placebo) ([2]; Cycle 1, 3.0 μg/kg): 2.0
Minimum Platelet Counts, Geometric Mean ([2]; Cycle 1, 3.0 μg/kg): 188250 µL⁻¹
Maximum Platelet Counts, GMR (Active/Placebo) ([2]; Cycle 2, 1.5 μg/kg): 0.9
Maximum Platelet Counts, Geometric Mean ([2]; Cycle 2, 1.5 μg/kg): 294150 µL⁻¹
Minimum Platelet Counts, GMR (Active/Placebo) ([2]; Cycle 2, 1.5 μg/kg): 0.9
Minimum Platelet Counts, Geometric Mean ([2]; Cycle 2, 1.5 μg/kg): 76170 µL⁻¹
Maximum Platelet Counts, GMR (Active/Placebo) ([2]; Cycle 2, 2.25 μg/kg): 1.3
Maximum Platelet Counts, Geometric Mean ([2]; Cycle 2, 2.25 μg/kg): 401870 µL⁻¹
Minimum Platelet Counts, GMR (Active/Placebo) ([2]; Cycle 2, 2.25 μg/kg): 2.2
Minimum Platelet Counts, Geometric Mean ([2]; Cycle 2, 2.25 μg/kg): 177540 µL⁻¹
Maximum Platelet Counts, GMR (Active/Placebo) ([2]; Cycle 2, 3.0 μg/kg): 1.4
Maximum Platelet Counts, Geometric Mean ([2]; Cycle 2, 3.0 μg/kg): 434100 µL⁻¹
Minimum Platelet Counts, GMR (Active/Placebo) ([2]; Cycle 2, 3.0 μg/kg): 2.2
Minimum Platelet Counts, Geometric Mean ([2]; Cycle 2, 3.0 μg/kg): 179930 µL⁻¹
Change From Baseline in Hemoglobin, Difference of LS Mean (SE) vs Placebo ([2]; Day 42, 1.5 μg/kg): 0.54 g/dL
Change From Baseline in Hemoglobin, LS Mean (SE) ([2]; Day 42, 1.5 μg/kg): −1.63 (0.50) g/dL
Change From Baseline in Hemoglobin, Difference of LS Mean (SE) vs Placebo ([2]; Day 42, 2.25 μg/kg): 0.57 g/dL
Change From Baseline in Hemoglobin, LS Mean (SE) ([2]; Day 42, 2.25 μg/kg): −1.60 (0.42) g/dL
Change From Baseline in Hemoglobin, Difference of LS Mean (SE) vs Placebo ([2]; Day 42, 3.0 μg/kg): 1.00 g/dL
Change From Baseline in Hemoglobin, LS Mean (SE) ([2]; Day 42, 3.0 μg/kg): −1.16 (0.47) g/dL
decrease of mean Hb concentration from baseline ([2]; Day 42, 3.0-μg/kg group): 1.16 g/dL
Change From Baseline in Hemoglobin, Difference of LS Mean (SE) vs Placebo ([2]; Day 63, 1.5 μg/kg): -0.75 g/dL
Change From Baseline in Hemoglobin, LS Mean (SE) ([2]; Day 63, 1.5 μg/kg): −2.98 (0.70) g/dL
Change From Baseline in Hemoglobin, Difference of LS Mean (SE) vs Placebo ([2]; Day 63, 2.25 μg/kg): 0.68 g/dL
Change From Baseline in Hemoglobin, LS Mean (SE) ([2]; Day 63, 2.25 μg/kg): −1.55 (0.61) g/dL
Change From Baseline in Hemoglobin, Difference of LS Mean (SE) vs Placebo ([2]; Day 63, 3.0 μg/kg): 0.79 g/dL
Change From Baseline in Hemoglobin, LS Mean (SE) ([2]; Day 63, 3.0 μg/kg): −1.44 (0.61) g/dL
Change From Baseline in Hemoglobin, Difference of LS Mean (SE) vs Placebo ([2]; Day 84, 1.5 μg/kg): 0.05 g/dL
Change From Baseline in Hemoglobin, LS Mean (SE) ([2]; Day 84, 1.5 μg/kg): −1.88 (0.59) g/dL
Change From Baseline in Hemoglobin, Difference of LS Mean (SE) vs Placebo ([2]; Day 84, 2.25 μg/kg): 0.03 g/dL
Change From Baseline in Hemoglobin, LS Mean (SE) ([2]; Day 84, 2.25 μg/kg): −1.90 (0.55) g/dL
Change From Baseline in Hemoglobin, Difference of LS Mean (SE) vs Placebo ([2]; Day 84, 3.0 μg/kg): 1.13 g/dL
Change From Baseline in Hemoglobin, LS Mean (SE) ([2]; Day 84, 3.0 μg/kg): −0.80 (0.59) g/dL
Effects ([2]; Humans, Phase 1b study, whole wrapped cell: Protection against thrombocytopenia and anemia): Protection against
day of mean peak platelet counts ([2]; lower doses (1.5, 2.25 μg/kg), both cycles): 21 days
transient platelet increase, times the baseline ([2]; two subjects at 3.0 μg/kg, first cycle (stopping criteria)): more than 3 times the baseline
